In patent publication US20060154323A1, “Method for obtaining dynamic and structural data pertaining to proteins and protein/ligand complexes” (ProSpect Pharma, priority 2002, published 2006):

Tests used:
MUP [1] = target: T1, MUP (Mus musculus, UniProt P11588); assay: 13C-1H HSQC spectra of valine-enriched MUP complexes; settings: 13C-1H HSQC of complexes with valine-enriched MUP
T1 construct: made in house; host or cells: E. coli M15 cells with vector pqe30 MUP
T1 sequence (P11588 19-180): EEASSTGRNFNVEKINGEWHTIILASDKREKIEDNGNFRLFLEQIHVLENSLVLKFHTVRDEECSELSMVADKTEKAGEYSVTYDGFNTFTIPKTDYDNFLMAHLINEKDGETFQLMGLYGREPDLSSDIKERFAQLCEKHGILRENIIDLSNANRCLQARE

Major Urinary Protein = target: T2, Major Urinary Protein (Mus musculus, UniProt P11588); assay: S2axis order parameters of valine methyl groups from 600 MHz 13C R1/R2 relaxation of valine-enriched MUP and its complexes; settings: for S^2axis: MUP-ligand complex, 600 MHz, 30° C., pH 7.0
T2 construct: made in house; host or cells: E. coli M15 cells with vector pqe30 MUP
T2 sequence (P11588 19-180): T1 sequence (P11588 19-180)
Experimental: Samples of [^13C^γ1,^γ2HD2]-U-^2H valine enriched MUP both alone and complexed with 2-methoxy-3-isopropylpyrazine and 2-methoxy-3-isobutylpyrazine were prepared from a single sample at pH 7.0 and a protein concentration of 1 mM. A further sample of methyl-^13C, ^2H enriched MUP was prepared at pH 7.0 and a protein concentration of 0.5 mM. Longitudinal (R1) and transverse (R2) ^13C relaxation rates were determined essentially as described by Ishima et al., J. Am. Chem. Soc. 121:11589-11590, 1999. All spectra were recorded at a proton frequency of 600 MHz and a probe temperature of 30° C. R1 rates were determined with relaxation delay times of 16, 64, 128, 240, 400, 720, 1120, 1600, 2240 and 2880 milliseconds. R2 rates were determined with relaxation delay times of 16, 32, 48, 64, 96, 160, 192, 240 and 288 milliseconds, and an effective field strength of 2 kHz. Relaxation data were fit to a single exponential decay function I=I0exp(−tR), where I0 is the initial resonance intensity, t is the relaxation delay time and R is the relaxation rate (R1 or R2). Relaxation data were fitted to the Lipari-Szabo model-free spectral density of the form: J(ω)=S^2τm/(1+ω^2τ^2m)+(1−S^2)τi/(1+ω^2τi^2), where τi^−1=τM^−1+τe^−1, τM is the overall molecular tumbling correlation time and τe is the effective internal correlation time. See Lipari and Szabo, J. Am. Chem. Soc. 104:4546-4559, 1982. This equation is valid for fast internal motions, τe<<τM, under which conditions the order parameter for methyl CH dipolar relaxation is given by S^2=Saxis^2[P2(cos θH]^2. Saxis^2 is the order parameter of the methyl rotation axis and θH is the angle made by the axis and the CH bond vector. A global rotational correlation time of […] was used for these calculations, according to the previously reported value. Zidek et al., Nature Str. Biol. 6:1118-1121, 1999. Although the valine residues were perdeuterated at non-methyl positions, the protein was otherwise protonated, and dipolar relaxation due to these “external” protons is not negligible for ^13C relaxation. Thus, by analogy with the work of Ishima et al. J. Am. Chem. Soc. 123:6164-6171, 2001, the contribution of these external protons to ^13C R2 values was estimated at 25% from the X-ray coordinates of MUP. Consequently, measured ^13C R^2 rates were multiplied by 0.75 to account for these external dipolar relaxation processes.

MUP [2] = target: T1, MUP; assay: Binding of small hydrophobic ligands to MUP (Kd)
Mouse Urinary Protein = target: T3, Mouse Urinary Protein (Mus musculus, UniProt P11588); assay: 13C NMR relaxation (T1, T2) of valine 13CHD2-labeled MUP in absence and presence of ligand; settings: for T1, Change / T2, Change: Protein vs Bound Protein; for T1, Bound Protein / T2, Bound Protein: 298 K;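 on T1, Bound Protein: unit milliseconds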;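 on T2, Bound Protein: unit milliseconds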
T3 construct: made in house; host or cells: E. coli M15 cells with vector pqe30 MUP
T3 sequence (P11588 19-180): T1 sequence (P11588 19-180)
Experimental: A 15 mg sample of L-valine-α-D-^12CD(^13CHD2)2 labeled MUP was dissolved in 650 μL phosphate buffered saline (10 mM potassium phosphate; 200 mM sodium chloride), to which was added 50 μL deuterium oxide. ^13C Relaxation rates (R2 and R1) of ^13CHD2 groups were determined using pulse sequences as described in Ishima et al., J. Am. Chem. Soc. 121:11589-11590 (1999). Spectral parameters were as follows: spectral width in the ^13C dimension, 900 Hz; spectral width in the ^1H dimension, 5200 Hz; number of real data points in the ^13C dimension, 128; number of real points in the ^1H dimension, 1408; number of transients per t1 increment, 8; probe temperature, 298 K. Prior to two-dimensional Fourier transformation, free induction decays were apodized with cosine-bell windowing functions according to known methods.
The NMR analysis was then repeated following addition of the small molecule ligand 1 μL of isobutyl pyrazine or 1 μL of isopropyl pyrazine to separate solutions of MUP. The data shown below in Tables I and II and in FIG. 8 were obtained, clearly showing the changes in T1 and T2 values obtained on addition of these small molecule ligands.

[3] = valine methyl 59.HG1 (first line)
[4] = valine methyl 59.HG1 (second line)

Compound: COc1nccnc1C(C)C [2-methoxy-3-isopropylpyrazine]
- shift perturbations of Val 82 γ1 and γ2 correlations (MUP [1]): Significant shift perturbations
- changes in Saxis^2 of the six valine residues in MUP upon binding (Major Urinary Protein): only minor changes
- S^2axis (Major Urinary Protein; Val-12 C^γ1): 0.90
- S^2axis (Major Urinary Protein; Val-12 C^γ2): 0.69
- S^2axis (Major Urinary Protein; Val-47 C^γ1): 0.84
- S^2axis (Major Urinary Protein; Val-47 C^γ2): 0.90
- S^2axis (Major Urinary Protein; Val-53 C^γ1): 0.80
- S^2axis (Major Urinary Protein; Val-53 C^γ2): 0.85
- S^2axis (Major Urinary Protein; Val-59 C^γ1): 0.68
- S^2axis (Major Urinary Protein; Val-59 C^γ2): 0.86
- S^2axis (Major Urinary Protein; Val-70 C^γ1): 0.85
- S^2axis (Major Urinary Protein; Val-70 C^γ2): 0.77
- S^2axis (Major Urinary Protein; Val-82 C^γ1): 0.50
- S^2axis (Major Urinary Protein; Val-82 C^γ2): 0.48
- contribution of valine side-chains to the entropy of binding (Major Urinary Protein; from computations of Saxis^2 values, free protein and complexes): do not contribute significantly
- Kd (MUP [2]): 560 nM
- T1, Change (Mouse Urinary Protein; 12.HG1): −8.387 milliseconds
- T2, Change (Mouse Urinary Protein; 12.HG1): −8.329 milliseconds
- T1, Change (Mouse Urinary Protein; 12.HG2): −40.959 milliseconds
- T2, Change (Mouse Urinary Protein; 12.HG2): −9.198 milliseconds
- T1, Change (Mouse Urinary Protein; 47.HG1): 2.421 milliseconds
- T2, Change (Mouse Urinary Protein; 47.HG1): −13.342 milliseconds
- T1, Change (Mouse Urinary Protein; 47.HG2): −76.984 milliseconds
- T2, Change (Mouse Urinary Protein; 47.HG2): −4.561 milliseconds
- T1, Change (Mouse Urinary Protein; 53.HG1): −50.272 milliseconds
- T2, Change (Mouse Urinary Protein; 53.HG1): −14.174 milliseconds
- T1, Change (Mouse Urinary Protein; 53.HG2): 8.962 milliseconds
- T2, Change (Mouse Urinary Protein; 53.HG2): −7.866 milliseconds
- T1, Change (Mouse Urinary Protein; 59.HG1 (first line)): −91.665 milliseconds
- T2, Change (Mouse Urinary Protein; 59.HG1 (first line)): −16.574 milliseconds
- T1, Change (Mouse Urinary Protein; 59.HG1 (second line)): −49.656 milliseconds
- T2, Change (Mouse Urinary Protein; 59.HG1 (second line)): −6.181 milliseconds
- T1, Change (Mouse Urinary Protein; 70.HG1): 209.318 milliseconds
- T2, Change (Mouse Urinary Protein; 70.HG1): −41.741 milliseconds
- T1, Change (Mouse Urinary Protein; 70.HG2): 86.431 milliseconds
- T2, Change (Mouse Urinary Protein; 70.HG2): 11.930 milliseconds
- T1, Change (Mouse Urinary Protein; 82.HG1): −10.201 milliseconds
- T2, Change (Mouse Urinary Protein; 82.HG1): 10.857 milliseconds
- T1, Change (Mouse Urinary Protein; 82.HG2): 0.991 milliseconds
- T2, Change (Mouse Urinary Protein; 82.HG2): 19.924 milliseconds
- contribution of valine side-chains to the entropy of binding (Mouse Urinary Protein; from relaxation data in the presence of ligand): do not contribute significantly
- T1, Bound Protein (Mouse Urinary Protein; valine methyl 12.HG1): 1733.309 milliseconds
- T2, Bound Protein (Mouse Urinary Protein; valine methyl 12.HG1): 161.437 milliseconds
- T1, Bound Protein (Mouse Urinary Protein; valine methyl 12.HG2): 1509.370 milliseconds
- T2, Bound Protein (Mouse Urinary Protein; valine methyl 12.HG2): 192.512 milliseconds
- T1, Bound Protein (Mouse Urinary Protein; valine methyl 47.HG1): 1626.298 milliseconds
- T2, Bound Protein (Mouse Urinary Protein; valine methyl 47.HG1): 168.574 milliseconds
- T1, Bound Protein (Mouse Urinary Protein; valine methyl 47.HG2): 1067.605 milliseconds
- T2, Bound Protein (Mouse Urinary Protein; valine methyl 47.HG2): 155.315 milliseconds
- T1, Bound Protein (Mouse Urinary Protein; valine methyl 53.HG1): 2283.543 milliseconds
- T2, Bound Protein (Mouse Urinary Protein; valine methyl 53.HG1): 177.873 milliseconds
- T1, Bound Protein (Mouse Urinary Protein; valine methyl 53.HG2): 1355.764 milliseconds
- T2, Bound Protein (Mouse Urinary Protein; valine methyl 53.HG2): 158.149 milliseconds
- T1, Bound Protein (Mouse Urinary Protein; [3]): 1374.428 milliseconds
- T2, Bound Protein (Mouse Urinary Protein; [3]): 195.222 milliseconds
- T1, Bound Protein (Mouse Urinary Protein; [4]): 1572.793 milliseconds
- T2, Bound Protein (Mouse Urinary Protein; [4]): 153.897 milliseconds
- T1, Bound Protein (Mouse Urinary Protein; valine methyl 70.HG1): 1872.254 milliseconds
- T2, Bound Protein (Mouse Urinary Protein; valine methyl 70.HG1): 162.943 milliseconds
- T1, Bound Protein (Mouse Urinary Protein; valine methyl 70.HG2): 1077.097 milliseconds
- T2, Bound Protein (Mouse Urinary Protein; valine methyl 70.HG2): 150.103 milliseconds
- T1, Bound Protein (Mouse Urinary Protein; valine methyl 82.HG1): 925.102 milliseconds
- T2, Bound Protein (Mouse Urinary Protein; valine methyl 82.HG1): 213.526 milliseconds
- T1, Bound Protein (Mouse Urinary Protein; valine methyl 82.HG2): 668.810 milliseconds
- T2, Bound Protein (Mouse Urinary Protein; valine methyl 82.HG2): 203.529 milliseconds
